Reference: patent publication US4622293A, “Iodothyronine immunoassays employing HMS as TBP blocking agent” (Miles Laboratories, Inc., priority 1983, dated 1986)

Columns and labels:
[1] = tested on: serum proteins; assay: Effect of pH on the dissociation of iodothyronine from serum proteins by HMS; type: binding; conditions: for % Dissociated: 1.0 mM HMS in MIX solution
Description: Assays were performed in 3 ml polystyrene test tubes in duplicate. A solution (designated "MIX") was prepared containing 27 mL of 0.1 M sodium phosphate, at the stated pH, 73 mL of 21% polyethyleneglycol, 1.0 mM HMS, and 10 micrograms (μg) (40 μL) I-125-thyroxine for each 100 mL. Assay solutions are made up by addition of 50 μL of a serum sample, 0.1 mL of anti(thyroxine) antiserum diluted in 0.1 M sodium phosphate (at the given pH) and 1.0 mL of the MIX solution. Assays are included for maximum binding of label and nonspecific binding.

[2] = target: apo(glucose oxidase) (Aspergillus niger, UniProt P13006); assay: Effect of HMS on the activation of apo(glucose oxidase) by an FAD-labeled thyroxine conjugate; type: biochemical; conditions: 37° C, pH 6.5, five minute incubation, read-out: % Activity (absorbance at 520 nm as percentage of that with no HMS)
Sequence of apo(glucose oxidase) (P13006 17-605): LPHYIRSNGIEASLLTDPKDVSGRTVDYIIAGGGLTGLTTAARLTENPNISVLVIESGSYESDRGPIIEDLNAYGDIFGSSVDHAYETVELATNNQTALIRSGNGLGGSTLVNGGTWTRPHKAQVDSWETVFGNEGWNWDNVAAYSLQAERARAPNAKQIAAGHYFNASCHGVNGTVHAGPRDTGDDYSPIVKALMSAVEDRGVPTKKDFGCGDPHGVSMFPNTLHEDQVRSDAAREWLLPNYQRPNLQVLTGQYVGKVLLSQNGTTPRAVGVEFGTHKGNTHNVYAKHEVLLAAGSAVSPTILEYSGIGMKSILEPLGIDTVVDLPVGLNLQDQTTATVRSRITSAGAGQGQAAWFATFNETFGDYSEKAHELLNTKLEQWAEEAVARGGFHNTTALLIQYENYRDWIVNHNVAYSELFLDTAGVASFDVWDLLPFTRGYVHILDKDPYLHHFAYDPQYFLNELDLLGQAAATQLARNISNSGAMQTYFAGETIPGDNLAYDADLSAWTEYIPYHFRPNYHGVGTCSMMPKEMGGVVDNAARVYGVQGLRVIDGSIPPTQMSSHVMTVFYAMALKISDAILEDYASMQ
Description: The activation of apoglucose oxidase was set up with different concentrations of HMS and performed at 37° C. Assays containing 50 mM sodium phosphate, pH 6.5, 200 mM glucose, 2.0 mM sodium dichlorohydroxybenzene sulfonate (DHSA), 25 μg/mL peroxidase, various concentrations of HMS and 2.5 nM final concentration of a FAD-thyroxine conjugate (see U.S. Pat. No. 4,213,893) were started by adding apo(glucose oxidase), 4-aminoantipyrine, and anti(glucose oxidase) at final concentrations of 125 nM, 400 μM, and 8 μL/mL respectively. The absorbance at 520 nm was recorded after a five minute incubation. The data are presented in Table 3 as a percentage of the absorbance recorded when no HMS is present.

[3] = Water solubility (statement); type: physicochemical
[4] = tested on: human serum proteins (thyroxine binding proteins, TBP); assay: Dissociation of 125I-thyroxine from human serum proteins by HMS (Sephadex column); conditions: for Percent Dissociated in 5 Minutes / Percent Dissociated in 30 Minutes: pH 6.0, room temperature
Description: Radioactive iodine-labeled thyroxine (^125 I-thyroxine obtained from New England Nuclear, Boston, MA USA) was equilibrated with 3.5 milliliter (mL) of normal human serum for 48 hours at 4° C. Aliquots of this serum [50 microliters (μL)] were added to 450 μL of 0.1 molar (M) sodium phosphate, pH 6.0, containing various concentrations of HMS to give the final concentrations given in Table 1. After 5 or 30 minutes of incubation at room temperature, a 500 μL aliquot was applied to a Sephadex column from a Seralute® thyroxine assay kit (Miles Laboratories, Inc., Ames Division, Elkhart, IN, USA), which has been equilibrated with 0.1 M sodium phosphate, pH 6.0. The total radioactivity applied to the columns was measured and the undissociated material was washed through the column. The columns were counted to determine the percentage of thyroxine dissociated from the serum proteins.

COc1cc(O)c(C(=O)c2ccccc2)cc1S(=O)(=O)O [HMS, 2-hydroxy-4-methoxybenzophenone-5-sulfonic acid]
% Dissociated ([1]; pH 6.0): 73%
% Dissociated ([1]; pH 6.5): 73%
% Dissociated ([1]; pH 7.0): 69%
% Dissociated ([1]; pH 7.5): 72%
Effect of pH on the efficiency of dissociation ([1]; pH range 6.0-7.5): essentially no effect
activity at 50 µM ([2]; HMS 0.05 mM): 100%
activity at 100 µM ([2]; HMS 0.10 mM): 100%
activity at 500 µM ([2]; HMS 0.50 mM): 99%
activity at 1000 µM ([2]; HMS 1.00 mM): 97%
activity at 5000 µM ([2]; HMS 5.00 mM): 86%
activity at 10000 µM ([2]; HMS 10.00 mM): 72%
Water solubility [3]: highly water soluble
Percent Dissociated in 5 Minutes ([4]; HMS 1 mM): 65%
Percent Dissociated in 30 Minutes ([4]; HMS 1 mM): 73%
Percent Dissociated in 5 Minutes ([4]; HMS 2 mM): 74%
Percent Dissociated in 30 Minutes ([4]; HMS 2 mM): 84%
Percent Dissociated in 5 Minutes ([4]; HMS 4 mM): 91%
Percent Dissociated in 30 Minutes ([4]; HMS 4 mM): 94%
Percent Dissociated in 5 Minutes ([4]; HMS 6 mM): 93%
Percent Dissociated in 30 Minutes ([4]; HMS 6 mM): 95%
Dissociation of TBP-bound iodothyronine ([4]; concentration 4 mM): over 90%
Dissociation of TBP-bound iodothyronine ([4]; reaction mixture concentration 1 mM, in a few minutes): over 50%
